From patent publication US12642860B2, “Filamentous nanostructures and their use for treatment of pulmonary disease” (THE JOHNS HOPKINS UNIVERSITY, priority 2019, dated 2026)

Columns and labels:
[1] = Jet nebulizer release profile and output; format: physicochemical; conditions: within KPA filaments 1 mM
Experimental: FIGS. 24A-24F are jet nebulizer release profiles of EPA, OPA, and KPA supramolecular filaments with starting formulation concentrations at (24A) 10 μM, (24B) 100 μM, and (24C) 1000 μM, showing a linear release pattern for each system over the course of a 10 min nebulization event (3 mL solution). Data given represent mean #SD (n=3); dashed lines represent line of best fit from linear regression analysis. (24D) The aerosol output rate (μg/min) of the supramolecular filaments from a jet nebulizer at different formulation concentrations, showing no statistically significant difference (ns) between filaments at the same concentration and output rate scales linearly with increasing concentration. Data are given as mean±SD (p>0.05 amongst filament systems, ****p<0.0001 amongst concentrations, two-way ANOVA, n=3). […]
We next monitored the release pattern of the supramolecular filaments in aerosol droplets from a jet nebulizer device alongside the output rate. First analyzing the blank EPA, OPA, and KPA filaments, 3 mL solutions of the filaments were loaded into a jet nebulizer at varying concentrations and the remaining concentration of PA molecules and fluid weight loss were monitored over the course of a 10 min nebulization event. FIGS. 24A-C represents the measured release profile of the three filament systems at 10 µM, 100 μM, and 1000 μM, respectively. […]

[2] = Loading capacity of drugs/dye within KPA filaments; format: physicochemical; conditions: encapsulated in KPA filaments, % by mass
Description: FIGS. 20A-20C show (20A) the molecular structure of the lung disease-relevant drugs and fluorescent dye used in loading within the supramolecular filaments: paclitaxel (PTX, MW=853.92 g/mol), the anticancer drug; coumarin 6 (Cou6, MW=350.44 g/mol), the green fluorescent dye; and budesonide (BUD, MW=430.54 g/mol), the anti-inflammatory glucocorticoid used to treat symptoms of asthma and chronic obstructive pulmonary disease (top). (20B) The encapsulation process of hydrophobic drugs and dyes within supramolecular peptide amphiphile (PA)-based filaments, where dissolution of PA monomers and drug/dye in aqueous solutions results in their self-assembly with the drug/dye loaded within the hydrophobic core (left). The loading capacity of PTX, Cou6, and BUD based on mass (left axis, solid bars) and mole (right axis, checkered bars) percent within KPA supramolecular filaments (right). Data are given as mean±SD (n=5). (20C) Representative transmission electron microscopy (TEM) images of KPA filaments loaded with PTX (i, ii), Cou6 (iii, iv), and BUD (v, vi) before and after nebulization at 500 μM. Diameters are given as mean±SD (n=35).
With better insight into nebulization stability and the mechanism of supramolecular filament breakdown, we next sought to assess whether these systems can successfully carry drugs and dyes within aerosol droplets for potential inhalation-based therapies. […]

CCN(CC)c1ccc2cc(-c3nc4ccccc4s3)c(=O)oc2c1 [Cou6, coumarin 6]
aerosol output rate of encapsulated molecules [1]: comparable but higher than PTX | loading capacity by mass within KPA filaments [2]: 3.7%
